Measured values as given in ChEMBL document CHEMBL1149375, “Design and synthesis of dipeptidyl glutaminyl fluoromethyl ketones as potent severe acute respiratory syndrome coronovirus (SARS-CoV) inhibitors” (J Med Chem, 2006).
Square brackets hold non-standard residues; d marks the D form. Peptide text beside a SMILES is read from it. * marks the point of attachment. ξ: configuration not given here. Ile(3ξ) = CCC(C)[C@H](N)C(=O)O; ξE = NC(CCC(=O)O)C(=O)O; Cbz = O=C(OCc1ccccc1)*; CH2F = FC*

What was measured:
[1] = tested on: SARS-CoV; assay: Inhibitory activity against SARS coronavirus FFMI replication in vero (CCL81) cells; type: functional, organism-based; details: Severe acute respiratory syndrome-related coronavirus
[2] = tested on: rhinovirus A2; assay: Antiviral activity against Human rhinovirus 2 in a cell based assay; type: functional, organism-based
[3] = tested on: SARS-CoV; assay: Inhibitory activity against SARS coronavirus 6109 replication in vero (CCL81) cells; type: functional, organism-based; details: Severe acute respiratory syndrome-related coronavirus
[4] = tested on: Vero; assay: Selectivity index (CC50/EC50) in SARS coronavirus 6109 infected Vero cells; type: functional, Chlorocebus sabaeus
[5] = tested on: Vero; assay: Cytotoxicity against Vero (CCL81) cells; type: functional; details: Chlorocebus sabaeus
[6] = tested on: SARS-CoV; assay: Inhibitory activity against SARS coronavirus FFMI replication in Caco-2 cells; type: functional, organism-based; details: Severe acute respiratory syndrome-related coronavirus

SMILES	EC50 [1]	EC50 [2]	EC50 [3]	Selectivity index [4]	CC50 [5]	EC50 [6]
CC(C)[C@H](NC(=O)OCc1ccccc1)C(=O)NC(CCC(=O)N(C)C)C(=O)CF (stereo partly drawn) (Cbz-Val-[ξE](NMe2)-CH2F)	6.2 µM	> 100 mg/L	6.6 µM	>15	> 100 µM	12.6 µM
CC(C)C[C@H](NC(=O)OCc1ccccc1)C(=O)NC(CCC(=O)N(C)C)C(=O)CF (stereo partly drawn) (Cbz-Leu-[ξE](NMe2)-CH2F)	3.6 µM	> 100 mg/L	2.5 µM	>40	> 100 µM	2.4 µM
CC(C)[C@H](NC(=O)OCc1ccccc1)C(=O)NC(CC(=O)O)C(=O)CF (stereo not given in full)	> 100 µM	–	> 100 µM	–	> 100 µM	> 100 µM
CN(C)C(=O)CCC(NC(=O)CNC(=O)OCc1ccccc1)C(=O)CF (stereo not drawn) (Cbz-Gly-[ξE](NMe2)-CH2F)	> 100 µM	–	> 100 µM	–	> 100 µM	> 100 µM
CCC(C)[C@H](NC(=O)OCc1ccccc1)C(=O)NC(CCC(=O)N(C)C)C(=O)CF (stereo not given in full) (Cbz-[Ile(3ξ)]-[ξE](NMe2)-CH2F)	8.9 µM	> 100 mg/L	5.3 µM	>18	> 100 µM	8.8 µM
C[C@H](NC(=O)OCc1ccccc1)C(=O)NC(CCC(=O)N(C)C)C(=O)CF (stereo partly drawn) (Cbz-Ala-[ξE](NMe2)-CH2F)	> 100 µM	–	> 100 µM	–	> 100 µM	> 100 µM
